The values that follow come from publication PMC2424174, “Suppression of Tumor Growth and Angiogenesis by a Specific Antagonist of the Cell-Surface Expressed Nucleolin” (PLoS ONE, 2008).

The subject of one assay is ERK1/2. As to the kind of experiment: Serum-induced phosphorylation of ERK1/2. It counts as cell-based, human. The note with it: 2, 5 and 10 µM HB-19; 5 min after 10% FBS. As for the experimental part:
Figure 5 Cell cycle perturbations induced by HB-19 treatment. (A) Analysis of cell cycle parameters in HB-19 treated cells. MDA-MB-231 cells were cultured for 48 hours in medium without FBS (starvation) or in medium containing 10% FBS supplemented or not with 10 µM HB-19. DNA synthesis was quantified after BrdU incorporation and staining with anti-BrdU antibody and 7-AAD, by FACScan analysis. The histograms indicate the relative amount of cells in G1, S and G2/M cell phases. […] Serum starved MDA-MB-231 cells were stimulated with 10% FBS in the absence or presence of 2, 5, and 10 µM of HB-19. Five minutes after serum stimulation, cells were lysed directly in electrophoresis sample buffer and processed for immunoblotting using anti-phospho-p42/44 ERK1/2 and anti-p42/44 ERK antibodies. NS stands for non-stimulated cells.

The test system of another assay is Swiss mice. Briefly: Mouse Matrigel plug angiogenesis assay. It counts as in vivo. The note with it: endothelial-cell infiltration, n = 5 mice. The procedure:
Figure 6 Inhibition of in vitro and in vivo angiogenesis by HB-19. (A) HB-19 inhibits proliferation of HUVECs. Twenty-four hours after seeding HUVECs in 2% FBS, cells were stimulated by 0.25 nM VEGF165, in the absence or presence of 1 µM HB-19 or 0.1 µM anti-nucleolin mAb MS-3 as indicated. After 72 h, cell number was determined by crystal violet staining. The data are reported as the mean of triplicate samples. (B) HB-19 inhibits migration of HUVECs. Cell migration was studied using a modified Boyden chamber. Cells were incubated (4 h at 37°C) with VEGF165, HB-19, or anti-nucleolin mAb MS-3 as above. Cells that migrated through the pore to the lower filter surface were counted and are shown as number per microscopic field at ×100 magnification. The data are the mean of three independent high-power fields/well performed in duplicate in two independent experiments. […] Aortic endothelial (ABAE) cells in the absence or presence of 3 nM PTN, 0.5 nM VEGF165, and 3 nM FGF-2 were seeded on a three-dimensional collagen gel in complete medium. […] Tubular network structures were quantified using phase contrast microscopy (×100). […] Quantification of endothelial cell invasion into the Matrigel was determined and is expressed as a mean of five fields per section from 3 Matrigel-plug sections per mouse. The results are expressed as the mean of five mice per group. […]

Another assay concerns MDA-MB-435 cells. As to the kind of experiment: Colony formation in soft agar, MDA-MB-435. It counts as cell-based, human. The note with it: 5 µM HB-19, MDA-MB-435. As for the experimental part:
Figure 4 HB-19 inhibits colony formation in soft agar by tumor cell lines. (A) MDA-MB-231 cells in culture medium were seeded in triplicate in the absence (histogram C) or presence of 0.1, 0.5 and 1 of µM HB-19, or 0.1 µM of the anti-nucleolin mAb MS-3 or control IgG, or 10 µM bisphosphonate (BisP). (B) Various tumor cell lines (as indicated) in culture medium were seeded in triplicate in the absence (histogram Control) or presence of 5 µM HB-19. After 10–21 days, colonies with diameters greater than 50 µm were scored as positive. Statistical significance: *0.01<p<[…], **p<0.01, ***p<0.001.
Carcinoma cells (2×10^4) were mixed in 0.35% top agar, diluted in complete medium (DMEM containing 10% FBS) in the absence or presence of HB-19, and plated onto 0.8% bottom agar into 12-well plates. Cells were treated twice a week during 10 to 21 days. Colonies with diameters greater than 50 µm were scored as positive using a phase contrast microscope equipped with a measuring grid at magnification 100× [45]. The number of colonies was determined by analyzing 5 fields/well from 3 wells and the test was repeated at least twice.

The next assay has as its system nucleolin. The note with it: cited from earlier work. The text has this: HB-19 presents pentavalently the tripeptide Kψ(CH2N)PR in which the reduced peptide bond provides high stability against serum proteases (Figure 1). HB-19 forms a stable complex with the cell-surface expressed nucleolin and is internalized by an active process. This le ... || The interaction of HB-19 with surface nucleolin was investigated using human breast cancer MDA-MB-231 tumor cells and human umbilical vein endothelial cells (HUVECs). […] Similarly, HB-19/Btn binds and forms a stable complex with surface nucleolin in a dose-dependent manner in both types of cell ... || Previously, guanosine-rich phosphodiester oligonucleotides (referred to as GROs) and endostatin have been reported to exert antitumoral and antiangiogenic activity, respectively, through interaction with surface nucleolin [21], [41], [42]. […] At 20°C, GRO ... || (+ 1 further places)

In the case of “pseudo-tripeptide Lysψ(CH2N)-Pro-Arg coupled to a template (H2NLys-Lys-Lys-Gly-Pro-Lys-Glu-Lys-AhxCONH2) [HB-19, pseudopeptide presenting pentavalently the pseudo-tripeptide Lysψ(CH2N)-Pro-Arg coupled to a template]”, in the assay on ERK1/2, the “serum-stimulated ERK1/ERK2 phosphorylation” value is “prevents enhanced phosphorylation of ERK1/ERK2”. Further, the “inhibition of PTN induced angiogenesis” value in the assay with Swiss mice (1 µM HB-19, 5 nM PTN) was “significantly inhibited the ex vivo angiogenesis”. In addition, the “inhibition of FGF-2 induced angiogenesis” value in the assay on Swiss mice (1 µM HB-19, 10 nM FGF-2) was “significantly inhibited the ex vivo angiogenesis”. Besides, the colony formation result in the assay with MDA-MB-435 cells was “reduced markedly”. For the same substance, in the assay on nucleolin, the “binding site on nucleolin” value is “binds the C-terminal RGG domain of cell-surface expressed nucleolin” and the “heparan sulfate proteoglycan requirement of binding to surface nucleolin” value was “endostatin but not HB-19 binding to surface nucleolin requires heparan sulfate proteoglycans”. Besides, the “reversibility of binding to surface nucleolin” value with nucleolin (physiological conditions) is “bind surface nucleolin in an irreversible manner”.
